What all share (test): inhibition of tumour cell growth, NCI panel, 48 h
The subject of assay [1] is DMS 273 small cell lung.
The test system of assay [2] is UACC-257 melanoma.
Assay [3] deals with SK-MEL-5 melanoma.
Assay [4] relates to HCT-15 colon.
For assay [5], the system named is SK-MEL-2 melanoma.
The subject of assay [6] is SF-295 CNS.
Assay [7] relates to DMS 114 small cell lung.
The subject of assay [8] is OVCAR-5 ovarian.
The test system of assay [9] is SK-OV-3 ovarian.
Assay [10] relates to HS 578T breast.

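Tested at 5 concentrations; 48 h exposure; 96-well plates; endpoints linearly interpolated, else capped at highest concentration. GI50 is the concentration that inhibits growth by half. The concentration for full growth arrest is given as TGI.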

For the compound `COc1cc(C(C)O)c[n+](CCC2CNc3ccccc32)c1` (stereo not drawn), the TGI in assay [1], in assay [2], in [3], in assay [4], in assay [5] and in assay [6] was greater than 100 µM in each case. The TGI in [7] is greater than 100 µM.

Consider `C=C(C(=C)P(=S)(C(C)C)C(C)C)P(=S)(C(C)C)C(C)C`, for which the TGI in assay [1], in assay [2], in [3], in [4], in [8] and in assay [9] was greater than 100 µM each time. Moreover, the TGI in [6] and in assay [7] was greater than 100 µM each time.

`OCCN(CCO)c1cccc(N(CCO)CCO)n1`: the TGI in assay [1], in assay [2], in assay [3], in assay [4], in [5] and in assay [9] was greater than 100 µM throughout. The TGI in assay [6] and in assay [7] was greater than 100 µM each time.

As to `CC(=O)c1ccc(NC(=O)COC(=O)c2cccc3c(=O)c4ccccc4[nH]c23)cc1`, the TGI in assay [2] was greater than 100 µM; in assay [3] it was greater than 100 µM; in assay [9], greater than 100 µM; in assay [6] it was 49.2 µM; in assay [7], greater than 100 µM.

For `Cc1ccc(NC(=O)CCc2n[nH]c(=S)o2)cc1`, the TGI in [1], in assay [2], in assay [3], in assay [4], in [8] and in assay [6] was greater than 100 µM in each case. The TGI in assay [7] was greater than 100 µM.

Take `O=c1c2cc3c(cc2c2cccc4c2n1CCC4)OCO3`: the TGI in assay [1], in [2], in [3], in [4], in assay [5] and in [8] was greater than 100 µM each time. The TGI in [9] and in assay [6] was greater than 100 µM in each case.

Turning to `COc1cc2ccnc3c(=C(SC)SC)c(=O)c(c1OC)c23`, the TGI in assay [1] is 30.4 µM; in assay [2], 30.8 µM; in [4], 29.8 µM; in assay [5], 38.3 µM; in [8] it was 35.9 µM; in assay [9] it was greater than 100 µM. Further, the TGI in assay [6] is greater than 100 µM; in assay [7], 36 µM.

As for `CC(=O)NC(C=O)C(O[C@H](C)C(=O)NC(C)C(=O)NC(CCC(N)=O)C(=O)OCc1ccccc1)C(O)C(O)COC(=O)CCNc1c2ccccc2nc2cccc([N+](=O)[O-])c12` (stereo partly drawn), the TGI in assay [1] is 12 µM; in assay [2] it was 20.3 µM; in assay [3], greater than 100 µM; in assay [4], 30 µM; in [5], 3.05 µM; in assay [8] it was 13.2 µM. In addition, the TGI stood at 38.5 µM in [6] and 10.7 µM in assay [7].

In the case of `NC(=O)NC1C(C(=O)O)N(Cc2ccccc2)C(=O)N1Cc1ccccc1` (stereo not drawn), the TGI in assay [2], in [3], in [4], in assay [5], in assay [8] and in [9] was greater than 100 µM in each case. The TGI in assay [6] and in assay [7] was greater than 100 µM each time.

In the case of `O=C1CCCCC12CCC/C2=N\O` (stereo not drawn), the TGI in [1], in [2], in [3], in assay [4], in assay [5] and in assay [9] was greater than 100 µM throughout. In [7], this compound had a TGI greater than 100 µM.

Regarding `O=C(NCCCl)SCCO`, the TGI in assay [1], in assay [2], in assay [4], in assay [5], in assay [8] and in assay [9] was greater than 100 µM each time. In addition, the TGI in [6] and in assay [7] was greater than 100 µM throughout.

`O=C1OC(=O)C2C3C=CC(C12)C1C2C=CC2C31` (stereo not drawn): the TGI in [1], in assay [2], in [5], in [8], in assay [9] and in assay [6] was greater than 100 µM throughout.

On to `N#Cc1cccc(C=NC23CC4CC(CC(C4)C2)C3)c1`, for which the TGI in assay [1], in [2], in [4], in [5], in assay [8] and in assay [9] was greater than 100 µM in each case. Also, the TGI in [6] and in assay [7] was greater than 100 µM each time.

Take `COc1cc(Cl)cc(-c2nn(-c3cccc(NC(=O)Nc4ccc(Cl)c(Cl)c4)c3)cc2-c2ccncc2)c1`: the GI50 in assay [2] was 1.84 µM; in assay [3], 1.62 µM; in assay [4], 2.51 µM; in assay [10] it was 3.89 µM; in assay [5], 1.64 µM; in assay [8], 4.36 µM. Further, the GI50 in assay [9] was 3.6 µM; in [6] it was 1.77 µM. For the same compound, the TGI in assay [2] was 5.19 µM; in [3], 3.17 µM; in assay [4] it was 31.5 µM; in [10], greater than 100 µM; in assay [5] it was 3.74 µM; in [8], greater than 100 µM. Moreover, the TGI was 87 µM in [9] and 7.21 µM in assay [6].

As for `NC(CSSCC(N)C(=O)O)C(=O)O` (stereo not drawn), the GI50 in assay [2], in assay [3], in assay [4], in assay [10], in [5] and in assay [8] was greater than 100 µM each time. Moreover, the GI50 in assay [9] and in assay [6] was greater than 100 µM each time. Also, the TGI in [2], in assay [3], in [4], in assay [10], in [5] and in assay [8] was greater than 100 µM each time. The TGI in assay [9] and in [6] was greater than 100 µM each time.
